Assay results as given in patent US9943558B2, “Compositions and methods for treating multi-drug resistant malaria” (Febris Bio-Tech Limited, priority 2011, dated 2018).
Converted amounts (≈) assume the structure as drawn. Like-named read-outs stand apart in the source and are kept apart here. Blank lines part the entries; values can stand above or below the compound they belong to.

What was measured:
[1] = in vivo; cited from earlier work
P. falciparum DD2 = assay: Checkerboard assay (FIC index); format: cell-based, Plasmodium falciparum; conditions: for MIC: Plasmodium falciparum, DD2, each component used alone
Protocol: Checkerboard assay. The anti-malaria activity of Luohan fruit extracts and Stevia leaf extracts in vitro were determined and predicted using the malarial strain P. falciparum DD2. Samples are mixed into 1:2 series dilutions and the FIC index (FICI) is calculated. (Rand, K. H., Houck, H. J., Brown, P. et al. “Reproducibility of the microdilution checkerboard method for antibiotic synergy,” Antimicrobial Agents & Chemotherapy (1993) 37:613-5; Eliopoulos, G. M., Moellering R. C. in Antibiotics in Laboratory Medicine, ed. Lorian V (Williams & Wilkins, Baltimore, Md., 1991), pp 432-492; Ghannoum, M. A., Fu, Y., Ibrahim, A. S., Mortara, L. A., Shafiq, M. C., Edwards, J. E., Jr., Criddle, R. S. Antimicrob. Agents Chemother. (1995) 39:2459-2465; Barchiesi, F., DiFrancesco, L. F., Scalise, G. “In Vitro Activities of Terbinafine in Combination With Fluconazole and Itraconazole Against Isolates of Candida albicans With Reduced Susceptibility to Azoles,” Antimicrob. Agents Chemother. (1997) 41:1812-1814. Each of the foregoing references are incorporated herein by reference in their entirety.)
To determine whether the readout of the combination therapy is additive, synergistic, or indifferent, the FIC index (FICI) was calculated by the use of the checkerboard assay. The FICI represents the sum of the FICs of each drug tested, where the FIC (fractional inhibitory concentration) is determined for each drug by dividing the MIC of each drug when used in combination by the MIC of each drug when used alone. FICI=(MICdrug A in combination/MICdrug A alone)+(MICdrug B in combination/MICdrug B alone). The preassumptions are that (i) testing uses concentrations separated by a factor of 2, and (ii) one-dilution-step MIC changes are within the range of experimental error. Other sophisticated methods have also been used; for example, a contour surface-plot methodology was used in characterizing the nature of three antifungal agents in combinations using various concentrations of each agent.

[2] = cited from earlier work
[3] = system: P. falciparum multi-drug resistant (MDR) clone Dd2; assay: In vitro growth inhibition IC50, Giemsa-stained smears (Example 1D), clone Dd2; format: cell-based; conditions: Plasmodium falciparum
Protocol: (§1) The Luo Han Guo general extract (Sample 8) was prepared by extraction of dried Luo Han fruit with hot water as in Example 1A, and then fractionated with EtOAc and n-butanol respectively as in Example 1A to yield 3 fractions corresponding to Samples 5a-7a. Samples 6a-7a also correspond to “compound B” and “compound A” respectively.
(§2) The P. falciparum was cell synchronized by adding 5% of D-sorbitol, and synchronized cells were then spread on culture plates after achieving ring form phase, with an initial infection rate of 1% and PCV at 5%.
(§3) 10 μl active ingredient solution plus 90 μl P. falciparum culture medium were spread on each well.
(§4) Drug-sensitive (DS) clone 3D7 and multi-drug resistant (MDR) clone Dd2 of Plasmodium falciparum, obtained from the Malaria Research and Reference Reagent Resource Centre (MR4), Manassas, Va., USA, were maintained continuously in blood group O+ human erythrocytes and 10% human serum in a gas mixture consisting of 7% CO2, 5% O2 and 88% N2.
(§5) In vitro inhibitory concentration assays. P. falciparum clones 3D7 and Dd2 were maintained continuously in blood group O+ human erythrocytes and 10% human serum in a gas mixture consisting of 7% CO2, 5% O2, and 88% N2, synchronized by serial treatments with 5% D-sorbitol. […]

P. falciparum clone 3D7 = assay: Malaria SYBR Green I-based fluorescence method, clone 3D7; format: cell-based; conditions: Plasmodium falciparum, 3D7, 72 h, read-out: In vitro susceptibility (IC50) 3D7
Protocol: (§6) 1803-1806, Vol. 48, No. 5, with slight modifications. Drug solutions were serially diluted with culture medium and distributed to asynchronous parasite cultures in 96-well plates in quadruplicate to achieve 0.2% parasitaemia with a 2% haematocrit in a total volume of 100 μL. The plates were then incubated for 72 h at 37° C. Following incubation, 100 μL of lysis buffer with 0.2 μL/mL SYBR Green 1 was added to each well. The plates were incubated at 37° C. for 1 h in the dark and then placed in a 96-well fluorescence plate reader (Multilabel HTS Counter; PerkinElmer, Waltham, Mass., USA) with excitation and emission wavelengths at 497 nm and 520 nm, respectively, for measurement of fluorescence. The 50% inhibitory concentration (IC50) was determined by non-linear regression analysis of logistic dose—response curves using GraphPad Prism software (GraphPad Software Inc., La Jolla, Calif.). This example serves as a comparative method.
(§7) Next, the assay portion of procedure of Example 1C was performed using Coartem as a positive control.

[4] = system: Plasmodium falciparum multidrug resistant strain (MDR) 7G8; assay: In vitro growth inhibition of P. falciparum 7G8, infection rate by Giemsa-stained smear (Example 1B); format: cell-based; conditions: 7G8, read-out: Antimalarial activity, IC50
From the text: The Plasmodium falciparum multidrug resistant strain (MDR) 7G8, (obtained from the Malaria Research and Reference Reagent Resource Centre (MR4), Manassas, Va., USA), was in vitro cultured in RMPI 1640 cell culture medium (supplemented with 10% Human Serum) with PCV (packed cell volume) at 5%. The P. falciparum was cell synchronized by adding 5% of D-sorbitol, and synchronized cells were then spread on culture plates after achieving ring form phase, with an initial infection rate of 1% and PCV at 5%.
as §3

[5] = system: P. falciparum drug-sensitive (DS) clone 3D7; assay: In vitro growth inhibition IC50, Giemsa-stained smears (Example 1D), clone 3D7; format: cell-based; conditions: Plasmodium falciparum
Protocol: as §1, §2, §3, §4, §5

P. falciparum clone Dd2 = assay: Malaria SYBR Green I-based fluorescence method, clone Dd2; format: cell-based; conditions: Plasmodium falciparum, DD2, 72 h, read-out: In vitro susceptibility (IC50) Dd2
Protocol: as §6, §7

[6] = system: P. falciparum drug-sensitive clone 3D7; assay: In vitro inhibitory concentration assay, light microscopy of Giemsa-stained smears (Example 1C), clone 3D7; format: cell-based; conditions: Plasmodium falciparum, 10^−4 g/L, read-out: Percent of Inhibition (%, Mean ± SD) 3D7
Protocol: (§8) Parasite cultivation. Drug-sensitive clone 3D7 and multi-drug resistant (MDR) clone Dd2 of Plasmodium falciparum, obtained from the Malaria Research and Reference Reagent Resource Centre (MR4), Manassas, Va., USA, were maintained continuously in blood group O+ human erythrocytes and 10% human serum in a gas mixture consisting of 7% CO2, 5% O2 and 88% N2.
(§9) The stock solutions of Example 1A, and CQ employed as the positive control (prepared as a 10 mM stock solution in PBS), were stored at −20° C. Each working solution was freshly prepared in cell culture medium.
(§10) In vitro inhibitory concentration assays. P. falciparum clones 3D7 and Dd2 were maintained continuously in blood group O+ human erythrocytes and 10% human serum in a gas mixture consisting of 7% CO2, 5% O2, and 88% N2, synchronized by serial treatments with 5% D-sorbitol. In vitro growth inhibition of ring-stage-parasitized erythrocytes starting at 1% parasitemia and 2.5% hematocrit was determined by light microscopy of Giemsa-stained smears.

P. falciparum infection = assay: Expected oral treatment of patients, standard blood film monitoring; format: in vivo, Plasmodium falciparum; conditions: patient, aqueous composition, total daily dosage up to about 500 mg of each active
[7] = system: P. falciparum multi-drug resistant (MDR) clone Dd2; assay: In vitro inhibitory concentration assay, light microscopy of Giemsa-stained smears (Example 1C), clone Dd2; format: cell-based; conditions: Plasmodium falciparum, 10^−4 g/L, read-out: Percent of Inhibition (%, Mean ± SD) Dd2
Protocol: as §8, §9, §10

[8] = cited from earlier work; for half-life (t1/2): in humans
[9] = Example 2E (control): artemesinin with Reb A

SMILES: CCCCN(CCCC)CC(O)c1cc(Cl)cc2c1-c1ccc(Cl)cc1/C2=C/c1ccc(Cl)cc1 (racemic) [lumefantrine, (+/−)-2-dibutylamino-1-[2,7-dichloro-9-(4-chlorobenzylidene)-9,11-fluoren-4-yl]ethanol]
- elimination [1]: eliminated more slowly

SMILES: CO[C@H]1O[C@@H]2O[C@@]3(C)CC[C@H]4[C@H](C)CC[C@@H]([C@H]1C)[C@@]24OO3 [Artemether, artemether]
- elimination [1]: rapidly eliminated

- MIC in combination (P. falciparum DD2; [9]): 0.0081 nM
- MIC (P. falciparum DD2): 0.13 nM
SMILES: C[C@@H]1CC[C@H]2[C@@H](C)C(=O)O[C@@H]3O[C@@]4(C)CC[C@@H]1[C@]32OO4 [Artemisinin, reference compound]
- solubility in water [2]: poorly soluble in water

SMILES: CCN(CC)CCCC(C)Nc1ccnc2cc(Cl)ccc12 (centres unmarked) [CQ, chloroquine]
- IC50 ([3]; DD2, read-out: IC50, av. Dd2 (MDR)): 22.6 ± 0.82 nM
- IC50 (P. falciparum clone 3D7): 1.63 ± 0.1 nM
- IC50 [4]: 0.264 ± 0.012 µg/mL (≈ 0.825 µM)
- IC50 ([5]; 3D7, read-out: IC50, av. 3D7 (DS)): 1.37 ± 0.12 nM
- IC50 (P. falciparum clone Dd2): 22.1 ± 1.96 nM

- IC50 ([3]; clone Dd2 (MDR), Giemsa smear, read-out: IC50, av. Dd2 (MDR)): 376 ± 12.4 nM
- MIC in combination (P. falciparum DD2; Example 2D: compound A with Reb A): 94 nM
- MIC in combination (P. falciparum DD2; [9]): 376 nM
- MIC (P. falciparum DD2): 376 nM
- IC50 ([5]; clone 3D7 (DS), Giemsa smear, read-out: IC50, av. 3D7 (DS)): 220 ± 10.2 nM
SMILES: C=C1C[C@@]23CC[C@H]4[C@@](C)(CCC[C@@]4(C)C(=O)OC4OC(CO)C(O)C(O)C4O)[C@@H]2CC[C@]1(OC1OC(CO)C(O)C(OC2OC(CO)C(O)C(O)C2O)C1OC1OC(CO)C(O)C(O)C1O)C3 (stereo partly drawn) [Sample No. 1, (14α)-13-[(2-O-β-D-glucopyranosyl-3-O-β-D-glucopyranosyl-β-D-glucopyranosyl)oxy]kaur-16-en-19-oic acid β-D-glucopyranosyl ester]
- inhibition at 0.1 µg/mL [6]: 41.3%
- solubility in water [2]: fully water soluble
- expected time until P. falciparum infection is suppressed or inhibited (P. falciparum infection): 3 to 7 days
- inhibition at 0.1 µg/mL [7]: 56.1 ± 1.36%
- adverse hemodynamic effects or blood glucose lowering effects ([8]; at the dosages used herein): does not exhibit adverse hemodynamic effects or blood glucose lowering effects
- half-life (t1/2) [8]: approximately 14 hours

SMILES: C[C@H](CC[C@@H](OC1OC(COC2OC(CO)C(O)C(O)C2O)C(O)C(O)C1OC1OC(CO)C(O)C(O)C1O)C(C)(C)O)[C@H]1CC[C@@]2(C)[C@@H]3CC=C4[C@@H](CC[C@H](OC5OC(COC6OC(CO)C(O)C(O)C6O)C(O)C(O)C5O)C4(C)C)[C@]3(C)[C@H](O)C[C@]12C (stereo partly drawn) [mogroside V, (3β,9β,10α,11α,24R)-3-[(6-O-β-D-glucopyranosyl-β-D-glucopyranosyl)oxy]-11,25-dihydroxy-9-methyl-19-norlanost-5-en-24-yl-O-β-D-glucopyranosyl-(1-2)-O-[β-D-glucopyranosyl-(1-6)]-β-D-glucopyranoside]
- solubility in water [2]: fully water soluble

SMILES: C=C1C[C@@]23CC[C@H]4[C@@](C)(CCC[C@@]4(C)C(=O)O[C@@H]4O[C@H](CO)[C@@H](O)[C@H](O)[C@H]4O)[C@@H]2CC[C@]1(O[C@@H]1O[C@H](CO)[C@@H](O)[C@H](O)[C@H]1O[C@@H]1O[C@H](CO)[C@@H](O)[C@H](O)[C@H]1O)C3 [stevioside]
- half-life (t1/2) [8]: approximately 14 hours
